Structures can show the parent of a compound that is named as a salt.

In this assay the target is T1, human TGR5 (Homo sapiens, UniProt Q8TDU6).
T1 construct: expressed in transfected cells; host or cells: HEK293
T1 sequence (Q8TDU6 1-330): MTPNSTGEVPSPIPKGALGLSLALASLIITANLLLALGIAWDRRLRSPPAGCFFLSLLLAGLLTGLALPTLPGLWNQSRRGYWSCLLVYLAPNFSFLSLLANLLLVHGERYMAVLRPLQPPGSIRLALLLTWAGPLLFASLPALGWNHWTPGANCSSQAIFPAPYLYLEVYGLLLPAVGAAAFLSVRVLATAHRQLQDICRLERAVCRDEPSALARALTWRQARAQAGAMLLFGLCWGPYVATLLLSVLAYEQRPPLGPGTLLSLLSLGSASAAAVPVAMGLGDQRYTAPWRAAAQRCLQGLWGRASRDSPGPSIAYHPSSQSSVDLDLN
In words: Cell-based TGR5 assay (cAMP generation, HTRF). Conditions: HEK293 cells stably transfected with human TGR5; cAMP by HTRF; 30 minutes at 37° C.; read-out: pEC50 Human TGR5 (converted). Summed up: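 First, compounds in 3-fold serial dilution were placed in HBSS with 10 mM HEPES pH 7.4 and 0.5 mM IBMX. Next, human TGR5-expressing HEK293 cells were added and incubated 30 min at 37° C. Finally, cAMP was detected by HTRF and pEC50 derived by logistic fitting.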
Take `O=C(NC[C@H](O)[C@@H](O)[C@H](O)[C@H](O)CO)[C@H]1CC[C@H](NS(=O)(=O)c2ccc(Cl)c(COC3(c4cnccc4-c4ccccc4OC4CC4)CC3)c2)CC1` [Compound I-442, (1r,4r)-4-[4-chloro-3-({1-[4-(2-cyclopropoxyphenyl)pyridin-3-yl]cyclopropoxy}methyl)benzenesulfonamido]-N-[(2S,3R,4R,5R)-2,3,4,5,6-pentahydroxyhexyl]cyclohexane-1-carboxamide]: the EC50 is under 100 nM. With `CC(CCCN(C(=O)[C@@H](O)[C@@H](O)[C@H](O)[C@@H](O)CO)C1CCS(=O)(=O)CC1)c1ccc(Cl)c(COC2(c3cnccc3-c3ccccc3OC3CC3)CC2)c1` (stereo partly drawn) [Compound I-311, (2S,3S,4R,5S)-N-{4-[4-chloro-3-({1-[4-(2-cyclopropoxyphenyl)pyridin-3-yl]cyclopropoxy}methyl)phenyl]pentyl}-N-(1,1-dioxo-1λ^6-thian-4-yl)-2,3,4,5,6-pentahydroxyhexanamide], the EC50 is under 100 nM. For `O=C(NCCCCCS(=O)(=O)c1ccc(Cl)c(COC2(c3cnccc3-c3ccccc3OC3CC3)CC2)c1)N[C@@H](CO)[C@@H](O)[C@H](O)[C@H](O)CO` [Compound I-643, 1-{5-[4-chloro-3-({1-[4-(2-cyclopropoxyphenyl)pyridin-3-yl]cyclopropoxy}methyl)benzenesulfonyl]pentyl}-3-[(2S,3R,4S,5R)-1,3,4,5,6-pentahydroxyhexan-2-yl]urea], the EC50 is under 100 nM. As for `CC(=O)N(CCSc1ccc(Cl)c(CNC2(c3cnccc3-c3ccccc3OC3CC3)CC2)c1)C[C@H](O)[C@@H](O)[C@H](O)[C@H](O)CO` [Compound I-504, N-[2-({4-chloro-3-[({1-[4-(2-cyclopropoxyphenyl)pyridin-3-yl]cyclopropyl}amino)methyl]phenyl}sulfanyl)ethyl]-N-[(2S,3R,4R,5R)-2,3,4,5,6-pentahydroxyhexyl]acetamide], the EC50 was 126 to 1000 nM. In the case of `Cc1ccc(SCCCCN(CCCS(C)(=O)=O)C(=O)[C@@H](O)[C@@H](O)[C@H](O)[C@@H](O)CO)cc1CNC1(c2cnccc2-c2ccccc2OC2CC2)CC1` [Compound I-548, (2S,3S,4R,5S)-N-[4-({3-[({1-[4-(2-cyclopropoxyphenyl)pyridin-3-yl]cyclopropyl}amino)methyl]-4-methylphenyl}sulfanyl)butyl]-2,3,4,5,6-pentahydroxy-N-(3-methanesulfonylpropyl) hexanamide], the EC50 is 126 to 1000 nM.

In the case of `COCCNC(=O)N(CCCCc1cc(Cl)c(COC2(c3cnccc3-c3ccccc3OC3CC3)CC2)cc1Cl)C[C@H](O)[C@@H](O)[C@H](O)[C@H](O)CO` [Compound I-76, 1-{4-[2,5-dichloro-4-({1-[4-(2-cyclopropoxyphenyl)pyridin-3-yl]cyclopropoxy}methyl)phenyl]butyl}-3-(2-methoxyethyl)-1-[(2S,3R,4R,5R)-2,3,4,5,6-pentahydroxyhexyl]urea], the EC50 was 126 to 1000 nM. Consider `CC(=O)N(CCCCc1cc(Cl)c(COC2(c3cnccc3-c3ccccc3OC3CC3)CC2)cc1Cl)C[C@H](O)[C@@H](O)[C@H](O)[C@H](O)CO` [Compound I-68, N-{4-[2,5-dichloro-4-({1-[4-(2-cyclopropoxyphenyl)pyridin-3-yl]cyclopropoxy}methyl)phenyl]butyl}-N-[(2S,3R,4R,5R)-2,3,4,5,6-pentahydroxyhexyl]acetamide], for which the EC50 was under 100 nM. As for `CC[C@@H](O)CN(C[C@H](O)[C@@H](O)[C@H](O)[C@H](O)CO)C(=O)CCCCc1cc(Cl)c(COC2(c3cnccc3-c3ccccc3OC3CC3)CC2)cc1Cl` [Compound I-123, 5-[2,5-dichloro-4-({1-[4-(2-cyclopropoxyphenyl)pyridin-3-yl]cyclopropoxy}methyl)phenyl]-N-[(2R)-2-hydroxybutyl]-N-[(2S,3R,4R,5R)-2,3,4,5,6-pentahydroxyhexyl]pentanamide], the EC50 is under 100 nM. As to `Cc1ccc(Cl)c(COC2(c3cnccc3-c3ccccc3OC3CC3)CC2)c1` [Compound I-54, 3-{1-[(2-chloro-5-methylphenyl)methoxy]cyclopropyl}-4-(2-cyclopropoxyphenyl)pyridine], the EC50 was under 100 nM. As to `O=C(NCCCCCc1cc(Cl)c(CNC2(c3cnccc3-c3ccccc3OC3CC3)CC2)cc1Cl)NC[C@H](O)[C@@H](O)[C@H](O)[C@H](O)CO` [Compound I-60, 1-(5-[2,5-dichloro-4-[([1-[4-(2-cyclopropoxyphenyl)pyridin-3-yl]cyclopropyl]amino)methyl]phenyl]pentyl)-3-[(2S,3R,4R,5R)-2,3,4,5,6-pentahydroxyhexyl]urea hydrochloride], the EC50 is under 100 nM. For the molecule `CN(C[C@H](O)[C@@H](O)[C@H](O)[C@H](O)CO)C(=O)CCCSc1ccc(Cl)c(COC2(c3cnccc3-c3ccccc3OC3CC3)CC2)c1` [Compound I-648, 4-{[4-chloro-3-({1-[4-(2-cyclopropoxyphenyl)pyridin-3-yl]cyclopropoxy}methyl)phenyl]sulfanyl}-N-methyl-N-[(2S,3R,4R,5R)-2,3,4,5,6-pentahydroxyhexyl]butanamide], the EC50 was under 100 nM. For the molecule `CN(CCCNC[C@H](O)[C@@H](O)[C@H](O)[C@H](O)C(=O)O)C(=O)CCCCc1cc(Cl)c(COC2(c3cnccc3-c3ccccc3OC3CC3)CC2)cc1Cl` [Compound I-180, (2S,3S,4R,5S)-6-[(3-{5-[2,5-dichloro-4-({1-[4-(2-cyclopropoxyphenyl)pyridin-3-yl]cyclopropoxy}methyl)phenyl]-N-methylpentanamido}propyl)amino]-2,3,4,5-tetrahydroxyhexanoic acid], the EC50 is under 100 nM. Regarding `O=C(NCCC1CCN(S(=O)(=O)c2ccc(Cl)c(COC3(c4cnccc4-c4ccccc4OC4CC4)CC3)c2)CC1)[C@@H](O)[C@@H](O)[C@H](O)[C@@H](O)CO` [Compound I-462, (2S,3S,4R,5S)-N-(2-{1-[4-chloro-3-({1-[4-(2-cyclopropoxyphenyl)pyridin-3-yl]cyclopropoxy}methyl)benzenesulfonyl]piperidin-4-yl}ethyl)-2,3,4,5,6-pentahydroxyhexanamide], the EC50 is under 100 nM. As to `CC(=O)N(CCCSc1ccc(Cl)c(CNC2(c3cnccc3-c3ccccc3OC3CC3)CC2)c1)C[C@H](O)[C@@H](O)[C@H](O)[C@H](O)CO` [Compound I-502, N-[3-({4-chloro-3-[({1-[4-(2-cyclopropoxyphenyl)pyridin-3-yl]cyclopropyl}amino)methyl]phenyl}sulfanyl)propyl]-N-[(2S,3R,4R,5R)-2,3,4,5,6-pentahydroxyhexyl]acetamide], the EC50 was under 100 nM. Turning to `Cc1cc(COC2(c3cnccc3-c3ccccc3OC3CC3)CC2)c(Cl)cc1CCCCNC(=O)N[C@@H](CO)[C@@H](O)[C@H](O)[C@H](O)CO` [Compound I-95, 1-(4-(5-chloro-4-((1-(4-(2-cyclopropoxyphenyl)pyridin-3-yl)cyclopropoxy)methyl)-2-methylphenyl)butyl)-3-((2S,3R,4S,5R)-1,3,4,5,6-pentahydroxyhexan-2-yl)urea], the EC50 is under 100 nM. Regarding `Cc1ccc(SCCCN(CCCCO)C(=O)[C@@H](O)[C@@H](O)[C@H](O)[C@@H](O)CO)cc1COC1(c2cnccc2-c2ccccc2OC2CC2)CC1` [Compound I-539, (2S,3S,4R,5S)-N-(3-{[3-({1-[4-(2-cyclopropoxyphenyl)pyridin-3-yl]cyclopropoxy}methyl)-4-methylphenyl]sulfanyl}propyl)-2,3,4,5,6-pentahydroxy-N-(4-hydroxybutyl)hexanamide], the EC50 is 126 to 1000 nM.

These data come from patent US12084472B2 (Ardelyx, Inc., priority 2015, dated 2024).
